{"source": "patent US20230146455A1", "about": "“TREATMENT OF INFLAMMATORY DISEASES WITH PEPTIDES AND PHARMACEUTICAL COMPOSITIONS” (Yuyu Pharma, Inc., priority 2020, published 2023)", "tested_on": "TNF-alpha", "assay": "Example 9 Luminex, LPS hPBMCs: TNF-alpha", "type": "cell-based, human", "procedure": "Treatment Human PBMCs were pretreated with YY-101, YDE-011 and YDE-043 or reference compound; Xiidra® at various concentration (ranging from 1 nM to 100 uM) for 2 h before stimulation. An equal volume of 0.5% DMSO was used as a vehicle control. Then, the cells were treated with LPS at 5 ug/ml. The supernatants from treated cells were harvested at 24 h and placed in a 96 well for Luminex cytokine & chemokine profiling using a Luminex 200 multiplex assay (Luminex; R&D system, USA).\nThe main study arm with triplicate wells per group in a 24-well plate: • 1. Blank • 2. PBMC: 0.5% DMSO • 3. PBMC+LPS (5 ug/ml) • 4. PBMC+YY-101 100 uM • 5. PBMC+YY-101 10 uM • 6. PBMC+YY-101 1 uM • 7. PBMC+YY-101 0.1 uM • 8. PBMC+YY-101 0.01 uM • 9. PBMC+LPS (5 ug/ml)+Xiidra®100 uM • 10. PBMC+LPS (5 ug/ml)+Xiidra® 10 uM • 11. PBMC+LPS (5 ug/ml)+Xiidra® 1 uM • 12. PBMC+LPS (5 ug/ml)+Xiidra®0.1 uM • 13. PBMC+LPS (5 ug/ml)+Xiidra®0.01 uM • 14. PBMC+LPS (5 ug/ml)+Xiidra®0.001 uM • 15. PBMC+LPS (5 ug/ml)+YY-101 100 uM • 16. PBMC+LPS (5 ug/ml)+YY-101 10 uM • 17. PBMC+LPS (5 ug/ml)+YY-101 1 uM • 18. PBMC+LPS (5 ug/ml)+YY-101 0.1 uM • 19. PBMC+LPS (5 ug/ml)+YY-101 0.01 uM • 20. PBMC+LPS (5 ug/ml)+YY-101 0.001 uM • 21. PBMC+LPS (5 ug/ml)+YDE-011 100 uM • 22. PBMC+LPS (5 ug/ml)+YDE-011 10 uM • 23. PBMC+LPS (5 ug/ml)+YDE-011 1 uM • 24. PBMC+LPS (5 ug/ml)+YDE-011 0.1 uM • 25. PBMC+LPS (5 ug/ml)+YDE-011 0.01 uM • 26. PBMC+LPS (5 ug/ml)+YDE-011 0.001 uM • 27. PBMC+LPS (5 ug/ml)+YDE-043 100 uM • 28. PBMC+LPS (5 ug/ml)+YDE-043 10 uM • 29. PBMC+LPS (5 ug/ml)+YDE-043 1 uM • 30. PBMC+LPS (5 ug/ml)+YDE-043 0.1 uM • 31. PBMC+LPS (5 ug/ml)+YDE-043 0.01 uM • 32. PBMC+LPS (5 ug/ml)+YDE-043 0.001 uM\nMultiplex assay was used to measure 30 cytokines and chemokines. The 1:2, 1:10 and 1:200 diluted cell supernatant and serial dilution of the standard were dispensed into a 96 well plate at 50 ul/well. Then, the pre-mixed cocktail of antibody-coated magnetic beads was dispensed at 50 ul/well and incubated at room temperature for 2 h in a horizontal orbital microplate shaker at 800±500 rpm. The beads were washed using a magnetic device to prevent loss. The biotin-antibody was dispensed in 50 ul of each well and incubated at room temperature for 1 h in a shaker at 800±500 rpm. After washing, streptavidin-PE was added at 50 ul/well and incubated at room temperature for 30 min in a shaker under the same conditions. Finally, after washing, wash buffer (100 ul/well) was added to the plate and incubated in a shaker for 2 min. The Luminex™ 200 setting were set according to the manufacturer's protocol. The data was calculated with a standard five-parameter logistic nonlinear regression analysis of the data (xPonent software 4.2, USA). The levels of cytokine/chemokine are normalized to the live cell counts (1×10^5 cells/mL) and presented as concentrations per mL (pg/mL or ng/mL).", "key": {"[1]": {"settings": "PBMC + LPS(5 ug/ml) + test article 0.001 uM, Mean"}, "[2]": {"settings": "PBMC + LPS(5 ug/ml) + test article 0.001 uM, individual replicates (1st, 2nd, 3rd)"}, "[3]": {"settings": "PBMC + LPS(5 ug/ml) + test article 0.01 uM, Mean"}, "[4]": {"settings": "PBMC + LPS(5 ug/ml) + test article 0.01 uM, individual replicates (1st, 2nd, 3rd)"}, "[5]": {"settings": "PBMC + LPS(5 ug/ml) + test article 0.1 uM, Mean"}, "[6]": {"settings": "PBMC + LPS(5 ug/ml) + test article 0.1 uM, individual replicates (1st, 2nd, 3rd)"}, "[7]": {"settings": "PBMC + LPS(5 ug/ml) + test article 1 uM, Mean"}, "[8]": {"settings": "PBMC + LPS(5 ug/ml) + test article 1 uM, individual replicates (1st, 2nd, 3rd)"}, "[9]": {"settings": "PBMC + LPS(5 ug/ml) + test article 10 uM, Mean"}, "[10]": {"settings": "PBMC + LPS(5 ug/ml) + test article 10 uM, individual replicates (1st, 2nd, 3rd)"}, "[11]": {"settings": "PBMC + LPS(5 ug/ml) + test article 100 uM, Mean"}, "[12]": {"settings": "PBMC + LPS(5 ug/ml) + test article 100 uM, individual replicates (1st, 2nd, 3rd)"}, "[13]": {"settings": "PBMC + test article 0.01 uM, no LPS, Mean"}, "[14]": {"settings": "PBMC + test article 0.01 uM, no LPS, individual replicates (1st, 2nd)"}, "[15]": {"settings": "PBMC + test article 0.1 uM, no LPS, Mean"}, "[16]": {"settings": "PBMC + test article 0.1 uM, no LPS, individual replicates (1st, 2nd)"}, "[17]": {"settings": "PBMC + test article 1 uM, no LPS, Mean"}, "[18]": {"settings": "PBMC + test article 1 uM, no LPS, individual replicates (1st, 2nd)"}, "[19]": {"settings": "PBMC + test article 10 uM, no LPS, Mean"}, "[20]": {"settings": "PBMC + test article 10 uM, no LPS, individual replicates (1st, 2nd)"}}, "note": "“And” between values parts separate entries of the source, which are not always exact repeats. Equal values may be shown once. Where a SMILES comes first, the peptide text is derived from it. [ ]: non-standard residue; d: D form. Hyp = O=C(O)[C@@H]1C[C@@H](O)CN1", "data": [{"smiles": "CC(C)C[C@H](NC(=O)CNC(=O)[C@H](CC(=O)O)NC(=O)[C@H](CCC(N)=O)NC(=O)CNC(=O)[C@@H]1C[C@@H](O)CN1)C(=O)N[C@@H](C)C(=O)NCC(=O)N1CCC[C@H]1C(=O)N[C@@H](CCCCN)C(=O)O", "note": "[YY-101] (H-[Hyp]GQDGLAGPK-OH; N-terminus and C-terminus assumed)", "values": [{"measurement": "LPS-induced TNF-alpha (in words)", "setting": "LPS 5 ug/mL 24 hrs, at as low as 1 nM", "value": "significantly reduced"}, {"measurement": "TNF-alpha Concentration", "setting": "[1]", "value": 2433.4, "unit": "pg/mL"}, {"measurement": "TNF-alpha conc/live cell", "setting": "[1]", "value": 379.7, "unit": "pg/10^5"}, {"measurement": "TNF-alpha Concentration", "setting": "[2]", "value": "2537.1 pg/mL and 2609.2 pg/mL and 2154.0 pg/mL"}, {"measurement": "TNF-alpha conc/live cell", "setting": "[2]", "value": "445.1 pg/10^5 and 367.5 pg/10^5 and 326.4 pg/10^5"}, {"measurement": "TNF-alpha Concentration", "setting": "[3]", "value": 2746.9, "unit": "pg/mL"}, {"measurement": "TNF-alpha conc/live cell", "setting": "[3]", "value": 445.6, "unit": "pg/10^5"}, {"measurement": "TNF-alpha Concentration", "setting": "[4]", "value": "2819.6 pg/mL and 2784.2 pg/mL and 2636.8 pg/mL"}, {"measurement": "TNF-alpha conc/live cell", "setting": "[4]", "value": "440.6 pg/10^5 and 464.0 pg/10^5 and 432.3 pg/10^5"}, {"measurement": "TNF-alpha Concentration", "setting": "[5]", "value": 2852.4, "unit": "pg/mL"}, {"measurement": "TNF-alpha conc/live cell", "setting": "[5]", "value": 489.7, "unit": "pg/10^5"}, {"measurement": "TNF-alpha Concentration", "setting": "[6]", "value": "2791.9 pg/mL and 2870.4 pg/mL and 2895.0 pg/mL"}, {"measurement": "TNF-alpha conc/live cell", "setting": "[6]", "value": "450.3 pg/10^5 and 552.0 pg/10^5 and 466.9 pg/10^5"}, {"measurement": "TNF-alpha Concentration", "setting": "[7]", "value": 2552.6, "unit": "pg/mL"}, {"measurement": "TNF-alpha conc/live cell", "setting": "[7]", "value": 392.3, "unit": "pg/10^5"}, {"measurement": "TNF-alpha Concentration", "setting": "[8]", "value": "2738.1 pg/mL and 2506.5 pg/mL and 2413.2 pg/mL"}, {"measurement": "TNF-alpha conc/live cell", "setting": "[8]", "value": "434.6 pg/10^5 and 353.0 pg/10^5 and 389.2 pg/10^5"}, {"measurement": "TNF-alpha Concentration", "setting": "[9]", "value": 2746.8, "unit": "pg/mL"}, {"measurement": "TNF-alpha conc/live cell", "setting": "[9]", "value": 416.6, "unit": "pg/10^5"}, {"measurement": "TNF-alpha Concentration", "setting": "[10]", "value": "2741.2 pg/mL and 2807.3 pg/mL and 2692.0 pg/mL"}, {"measurement": "TNF-alpha conc/live cell", "setting": "[10]", "value": "456.9 pg/10^5 and 438.6 pg/10^5 and 354.2 pg/10^5"}, {"measurement": "TNF-alpha Concentration", "setting": "[11]", "value": 2443.4, "unit": "pg/mL"}, {"measurement": "TNF-alpha conc/live cell", "setting": "[11]", "value": 423.4, "unit": "pg/10^5"}, {"measurement": "TNF-alpha Concentration", "setting": "[12]", "value": "2569.3 pg/mL and 2318.5 pg/mL and 2442.3 pg/mL"}, {"measurement": "TNF-alpha conc/live cell", "setting": "[12]", "value": "407.8 pg/10^5 and 374.0 pg/10^5 and 488.5 pg/10^5"}, {"measurement": "TNF-alpha Concentration", "setting": "[13]", "value": 28.1, "unit": "pg/mL"}, {"measurement": "TNF-alpha conc/live cell", "setting": "[13]", "value": 5.6, "unit": "pg/10^5"}, {"measurement": "TNF-alpha Concentration", "setting": "[14]", "value": "26.8 pg/mL and 29.4 pg/mL"}, {"measurement": "TNF-alpha conc/live cell", "setting": "[14]", "value": "5.1 pg/10^5 and 6.1 pg/10^5"}, {"measurement": "TNF-alpha Concentration", "setting": "[15]", "value": 29.4, "unit": "pg/mL"}, {"measurement": "TNF-alpha conc/live cell", "setting": "[15]", "value": 5.8, "unit": "pg/10^5"}, {"measurement": "TNF-alpha Concentration", "setting": "[16]", "value": "26.8 pg/mL and 32.0 pg/mL"}, {"measurement": "TNF-alpha conc/live cell", "setting": "[16]", "value": "6.1 pg/10^5 and 5.5 pg/10^5"}, {"measurement": "TNF-alpha Concentration", "setting": "[17]", "value": 33.3, "unit": "pg/mL"}, {"measurement": "TNF-alpha conc/live cell", "setting": "[17]", "value": 6.1, "unit": "pg/10^5"}, {"measurement": "TNF-alpha Concentration", "setting": "[18]", "value": "32.0 pg/mL and 34.6 pg/mL"}, {"measurement": "TNF-alpha conc/live cell", "setting": "[18]", "value": "5.8 pg/10^5 and 6.3 pg/10^5"}, {"measurement": "TNF-alpha Concentration", "setting": "[19]", "value": 61.4, "unit": "pg/mL"}, {"measurement": "TNF-alpha conc/live cell", "setting": "[19]", "value": 9.7, "unit": "pg/10^5"}, {"measurement": "TNF-alpha Concentration", "setting": "[20]", "value": "90.9 pg/mL and 32.0 pg/mL"}, {"measurement": "TNF-alpha conc/live cell", "setting": "[20]", "value": "14.2 pg/10^5 and 5.2 pg/10^5"}]}]}
